Marks after values point to notes of the source that are not given here.
Legend:
[1] = system: human cervical carcinoma (HeLa) cells; assay: Photodynamic activity (phototoxicity) after light activation, Neutral Red uptake; format: cell-based; conditions: for EC50: Homo sapiens, light or radiation study, HeLa, 12 h incubation, λ > 455 nm, 15.3 mW cm−2, 15 min, 13.7 J cm−2; for PDT activity improved over S3AlOHPc (fold): comparison with literature value of S3AlOHPc (ref 37); for EC50 higher than temoporfin (fold): comparison with literature value of temoporfin (ref 37)
Protocol: (§1) The human cervical carcinoma (HeLa) and human melanoma (SK-MEL-28) cell lines were purchased from the American Type Cell Culture Collection (ATCC; Manassas, VA, USA). Both cell lines were cultured in Dulbecco’s modified Eagle’s medium (DMEM) without phenol red (Lonza, Verviers, Belgium) and supplemented with 10% heat-inactivated fetal bovine serum (Sigma-Aldrich (Merck, Darmstadt, Germany), 1% penicillin/streptomycin solution (Lonza), 10 mM HEPES buffer (Lonza), and 4 mM ultraglutamine I (alanyl-L-glutamine; Lonza). The cell lines were cultured in 75 cm^2 tissue culture flasks (TPP, Trasadingen, Switzerland) and maintained in a CO2 incubator at 37 °C in a humidified atmosphere of 5% CO2 and subcultured every 3−4 days. For the cytotoxicity experiments (phototoxicity and dark toxicity), cells were seeded into 96-well plates (TPP) at a density of 7.5 × 10^3 (HeLa and SK-MEL-28) cells per well for 24 h.
(§2) Stock solutions of the investigated compounds were prepared in DMSO at a concentration of 0.5 mM (4b) or 1 mM (all other compounds) and were sterilized by filtration through 0.22 μm syringe MCE filters. The stock solutions were diluted by the above-mentioned cell culture medium to the required concentrations. The maximum DMSO concentration in the medium in the experiments was 1% (2% in case of cpd. 4b). Cytoxicity of DMSO at corresponding concentrations (without studied compounds) was assessed in all cytotoxicity experiments as well—no toxicity against SK-MEL-28 or HeLa cells was observed.
(§3) For the photodynamic activity assessment experiments (phototoxicity), both HeLa and SK-MEL-28 cells were incubated overnight (12 h) with the studied compounds. The cells were then carefully and swiftly washed twice with a prewarmed sterile phosphate-buffered saline, fresh cell culture medium was added, and cells were subsequently irradiated for 15 min using a 450 W ozone-free Xe lamp (Newport; intensity reduced to 400 W). The lamp was equipped with a long-pass filter (Newport 20CGA-455) and an 8-cm water filter to cut off undesirable wavelengths and heat radiation, respectively (λ > 455 nm, 15.3 mW cm^−2, 15 min, 13.7 J cm^−2). Cellular viability was measured after an additional 24 h by the above-mentioned NR uptake assay. At least four independent experiments, each in triplicate, were performed.
(§4) The concentrations of the studied compounds that induced a 50% decrease in cellular viability after treatment under the dark conditions (TC50, the median toxic concentration) or after the photodynamic treatment (EC50, the median effective concentration) were calculated using GraphPad Prism software (version 9.1.2; GraphPad Software, Inc., San Diego, CA, USA) for each independent experiment. The data are presented as the means ± standard deviations of these values.

[2] = system: human melanoma (SK-MEL-28) cells; assay: as above; format: cell-based; conditions: for EC50: Homo sapiens, light or radiation study, 12 h incubation, λ > 455 nm, 15.3 mW cm−2, 15 min, 13.7 J cm−2
Protocol: as §1, §2, §3, §4

SK-MEL-28 cells = assay: Dark toxicity (without irradiation), Neutral Red uptake; format: cell-based, human; conditions: 24 h in the dark, compounds precipitated over listed values
Protocol: as §1, §2
To assess dark toxicities (inherent toxicities of the studied compounds without irradiation), SK-MEL-28 cells were treated with studied PSs for 24 h in the dark. Viability was evaluated after two washing steps using the Neutral Red (NR; Sigma-Aldrich (Merck, Darmstadt, Germany) uptake assay, based on the ability of the living cells to incorporate NR into their intact lysosomes (concentration of NR in cell culture medium was 30 μg/mL and incubation time with NR was 2 h). The absorbance of soluble NR in cell lysate was measured at λ = 540 nm using a Tecan Infinite 200 M plate reader (Tecan, Männedorf, Switzerland). The viability of each experimental group was expressed as the percentage of the untreated controls incubated under the same conditions (100%). After staining (before lysis), the cells were briefly investigated under the microscope to verify changes in cellular morphology and the presence of NR in lysosomes (orange-red spots in the cells). These observations were in agreement with NR measurements.
as §4

[3] = Absorption and fluorescence measurements (quantum yield, lifetime); format: physicochemical; conditions: MeOH; for extinction coefficient (log ε): at λmax; for fluorescence quantum yield, absolute method (ΦF(absol)): integrating sphere; for fluorescence quantum yield, relative method (ΦF(relat)): rhodamin-G6 as reference; for fluorescence lifetime (τF): λexc = 506.1 nm
Protocol: The singlet oxygen quantum yields (ΦΔ) and the fluorescence quantum yields (ΦF) of tested samples in MeOH were determined using published comparative (relative) methods with rhodamin-G6 used as a reference for fluorescence (ΦF = 0.94 in EtOH [31]), and bengal rose as a reference for singlet oxygen determinations (ΦΔ = 0.76 in MeOH [32]). Singlet oxygen measurements were performed with 1,3-diphenylisobenzofuran as the chemical scavenger of singlet oxygen by monitoring its decomposition at 417 nm. The ΦF values were also determined by an absolute method using an integrating sphere in an FLS1000 fluorimeter (Edinburgh Instruments, Edinburgh, UK). Fluorescence lifetimes were measured on the same fluorimeter upon excitation by HPL510 laser (Edinburgh Instruments, λ = 506.1 nm).

Row | absorption maximum (λmax) [3] [nm] | emission maximum (λF) [3] [nm] | extinction coefficient (log ε) [3] | fluorescence quantum yield, absolute method (ΦF(absol)) [3] | fluorescence quantum yield, relative method (ΦF(relat)) [3] | fluorescence lifetime (τF) [3] [ns] | SMILES | EC50 [1] [nM] | PDT activity improved over S3AlOHPc (fold) [1] [×] | EC50 higher than temoporfin (fold) [1] [×] | TC50/EC50, phototherapeutic index [2] | EC50 [2] [nM] | TC50, dark toxicity (SK-MEL-28 cells)
1 | 530 | 546 | 4.36 | 0.022 | 0.024 | 0.17 | CC1=C(I)C(C)=[N+]2C1=C(c1ccc(OCCCCCN3C(=O)c4ccccc4C3=O)cc1)c1c(C)c(I)c(C)n1[B-]2(F)F [3a, 2,6-Diiodo-1,3,5,7-tetramethyl-8-{4-[5-(phthalimidyl)pentyloxy]phenyl}-4,4-difluoro-4-bora-3a,4a-diaza-s-indacene] | 140 ± 10 | 10 | 3 | >192 | 52 ± 10 | >10 ^b μM
2 | 530 | 547 | 3.70 | 0.030 | 0.023 | 0.17 | CC1=C(I)C(C)=[N+]2C1=C(c1ccc(OCCCCCCCCN3C(=O)c4ccccc4C3=O)cc1)c1c(C)c(I)c(C)n1[B-]2(F)F [3b, 2,6-Diiodo-1,3,5,7-tetramethyl-8-{4-[8-(phthalimidyl)octyloxy]phenyl}-4,4-difluoro-4-bora-3a,4a-diaza-s-indacene] | 1570 ± 330 |  |  | >8.13 | 1230 ± 140 | >10 ^b μM
3 | 523 | 538 | 4.04 | 0.23 | 0.22 | 1.54 | CC1=C(Br)C(C)=[N+]2C1=C(c1ccc(OCCCCCCCCN3C(=O)c4ccccc4C3=O)cc1)c1c(C)c(Br)c(C)n1[B-]2(F)F [4b, 2,6-Dibromo-1,3,5,7-Tetramethyl-8-{4-[8-(phthalimidyl)octyloxy]phenyl}-4,4-difluoro-4-bora-3a,4a-diaza-s-indacene] | 370 ± 70 | 10 | 3 | >45.5 | 220 ± 50 | >10 ^b μM
4 | 525 | 540 | 4.72 | 0.21 | 0.19 | 1.37 | CC1=C(Br)C(C)=[N+]2C1=C(c1ccc(OCCCCCN3C(=O)c4ccccc4C3=O)cc1)c1c(C)c(Br)c(C)n1[B-]2(F)F [4a, 2,6-Dibromo-1,3,5,7-tetramethyl-8-{4-[5-(phthalimidyl)pentyloxy]phenyl}-4,4-difluoro-4-bora-3a,4a-diaza-s-indacene] | 210 ± 20 | 10 | 3 | >123 | 81 ± 23 | >10 ^b μM

Further lines, the compound ahead of its results:

Row | SMILES | absorption maximum (λmax) [3] [nm] | emission maximum (λF) [3] [nm] | extinction coefficient (log ε) [3] | fluorescence quantum yield, absolute method (ΦF(absol)) [3] | fluorescence quantum yield, relative method (ΦF(relat)) [3] | fluorescence lifetime (τF) [3] [ns] | EC50 [1] [nM] | PDT activity improved over S3AlOHPc (fold) [1] [×] | EC50 higher than temoporfin (fold) [1] [×] | TC50/EC50, phototherapeutic index [2] | EC50 [2] [nM] | TC50, dark toxicity (SK-MEL-28 cells)
5 | CC1=CC(C)=[N+]2C1=C(c1ccc(OCCCCCCCCN3C(=O)c4ccccc4C3=O)cc1)c1c(C)cc(C)n1[B-]2(F)F [2b, 1,3,5,7-Tetramethyl-8-{4-[8-(phthalimidyl)octyloxy]phenyl}-4,4-difluoro-4-bora-3a,4a-diaza-s-indacene] | 498 | 507 | 4.96 | 0.44 | 0.42 | 2.88 | 2400 ± 530 |  |  | >2.64 | 3790 ± 200 | >10 ^b μM
6 | CC1=CC(C)=[N+]2C1=C(c1ccc(OCCCCCCCCN)cc1)c1c(C)cc(C)n1[B-]2(F)F [5b, 1,3,5,7-Tetramethyl-8-[4-(8-aminooctyloxy)phenyl]-4,4-difluoro-4-bora-3a,4a-diaza-s-indacene] | 498 | 507 | 4.00 | 0.50 | 0.47 | 3.22 | 1570 ± 330 |  |  | >4.13 | 2420 ± 460 | >10 ^b μM
7 | CC1=CC(C)=[N+]2C1=C(c1ccc(OCCCCCN)cc1)c1c(C)cc(C)n1[B-]2(F)F [5a, 1,3,5,7-Tetramethyl-8-[4-(5-aminopentyloxy)phenyl]-4,4-difluoro-4-bora-3a,4a-diaza-s-indacene] | 498 | 507 | 4.90 | 0.43 | 0.44 | 3.25 | 9400 ± 700 |  |  | >2.78 | 3600 ± 660 | >10 ^b μM

Reference: publication PMC8305389, “Tuning Photodynamic Properties of BODIPY Dyes, Porphyrins’ Little Sisters” (Molecules, 2021)
